Experimental data as given in patent US20260250250A1, “3-(SULPHONYL OR SULFONIMIDOYL)PROP-2-EN-1-YL]-2-OXO-1,2-DIHYDROPYRIDINE-3-CARBOXAMIDE DERIVATIVES” (Flinder Therapeutics B.V., priority 2022, published 2026).

Tests used:
[1] = molecular target: T1, human E3 ubiquitin-protein ligase RNF31 (HOIP) (Homo sapiens, UniProt Q96EP0); experiment: Cell-free HTRF-based HOIP inhibition assay; format: biochemical
T1 sequence (Q96EP0 695-1072 limits assumed): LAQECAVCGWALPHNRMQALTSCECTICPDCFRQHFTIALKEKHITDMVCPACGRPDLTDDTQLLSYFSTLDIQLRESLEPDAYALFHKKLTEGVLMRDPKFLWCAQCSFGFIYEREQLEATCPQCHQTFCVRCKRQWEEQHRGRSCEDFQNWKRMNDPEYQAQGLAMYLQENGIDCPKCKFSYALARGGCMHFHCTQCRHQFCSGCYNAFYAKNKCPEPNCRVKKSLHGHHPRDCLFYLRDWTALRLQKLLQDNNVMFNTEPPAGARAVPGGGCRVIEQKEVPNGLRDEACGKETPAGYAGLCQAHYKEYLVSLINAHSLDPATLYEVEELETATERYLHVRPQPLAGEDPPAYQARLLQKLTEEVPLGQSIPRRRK
Procedure: This assay was performed in the following steps: • a) synthesis of recombinant fragment of human E3 ubiquitin-protein ligase RNF31 (HOIP), expressed with purity >90% in E. coli system (the protein was prepared as 1 mg/mL stock in a standard formulation); • b) incubation of the compounds in a typical concentration range: 100-0.005 μM, at a final DMSO conc. 1% with a mixture of HOIP and ubiquitin activating enzyme E1 at 25° C., for 1 h at 25° C.; • c) followed by addition of a ubiquitination solution including E2 and substrates (the reaction proceeds for 2.5 h at 25° C.); and • d) HTRF detection was performed using a PHERAstar FSX (BMG Labtech) plate reader (excitation at 337 nm, dual emissions at 665 and 620 nm).

[2] = system: bladder carcinoma RT4 cell line; experiment: TNF-α-induced cytotoxicity assay (CellTiter-Glo viability); format: cell-based; conditions: Homo sapiens, RT-4, 72 h
Procedure: A viability assay, using bladder carcinoma RT4 cell line, was used for identifying the potential inhibitory effect of tested compounds on HOIP activity. The viability was determined by CellTiter-Glo Luminescent Cell Viability Assay (G7571, Promega) which measures the ability of generating a luminescent signal proportional to the amount of ATP present in living cells. The assay consists of a few steps: • a) the cells were routinely sub cultivated twice a week with standard complete growth medium composition; • b) cells were preparated for the assay by creating a cell suspension at the density of 0.05 mln cells/mL and dispensed into plates (ViewPlate-384, PerkinElmer) resulting in 1000 cells/well; • c) cells were stimulated with 1.25 ng/mL TNFα and with compounds and incubated for 72 h at 37° C. in the atmosphere with 5% CO2; and • d) for detection cytotoxicity was measured with CellTiter-Glo® Luminescent Cell Viability Assay based on the method described by the manufacturer.

[3] = system: NF-κB signaling pathway; experiment: Cell-based dual luciferase NF-κB reporter assay (HEK293 cells, TNF stimulated); conditions: Homo sapiens, HEK293
Procedure: Dual-luciferase reporter assay was designed to find inhibitors of HOIP affecting NF-κB signaling pathway. The assay was performed in HEK293 cells which were transfected with plasmids coding for Firefly and NanoLuc luciferases. The NanoLuc luciferase plasmid contains NF-κB response element which determines its expression.
The assay was run following standard dual-luciferase protocols. The assay consists of a few steps: • compounds were dispensed at a concentration range: 100-0.005 μM with a final DMSO concentration of 1% of final volume (25 μL); • cells were stimulated after 30 min with 2.5 ng/mL TNF; and • after 6 h Firefly and NanoLuc luciferase activities are determined according to the procedure described by the manufacturer of Nano-Glo Dual-Luciferase Reporter Assay System.

SMILES	IC50 [1]	IC50 [3]	IC50 [2]
COc1ccc(S(=N)(=O)/C=C/CNC(=O)c2cc3c([nH]c2=O)CCC(F)C3)cc1F (centres unmarked) [Example 172, 6-fluoro-N-[(2E)-3-[(3-fluoro-4-methoxyphenyl)(imino)oxo-λ^6-sulfanyl]prop-2-en-1-yl]-2-oxo-1,2,5,6,7,8-hexahydroquinoline-3-carboxamide]	≤ 1000 nM	–	≤ 10000 nM
CC(C)(C)c1ccc(S(=O)(=O)/C=C/CNC(=O)c2cc3c([nH]c2=O)CCCC3)cc1 [Example 50, N-[(2E)-3-(4-tert-butylbenzenesulfonyl)prop-2-en-1-yl]-2-oxo-1,2,5,6,7,8-hexahydroquinoline-3-carboxamide]	≤ 10000 nM	≤ 10000 nM	–
COc1ccc(S(=N)(=O)/C=C/CNC(=O)c2cc3c([nH]c2=O)CCCC3)cc1 (centres unmarked) [Example 57, N-[(2E)-3-[imino(4-methoxyphenyl)oxo-λ^6-sulfanyl]prop-2-en-1-yl]-2-oxo-1,2,5,6,7,8-hexahydroquinoline-3-carboxamide]	–	≤ 1000 nM	≤ 1000 nM
COc1ccc(S(=N)(=O)/C=C/CNC(=O)c2ccc[nH]c2=O)cc1F (centres unmarked) [Example 186, N-[(2E)-3-[(3-fluoro-4-methoxyphenyl)(imino)oxo-λ^6-sulfanyl]prop-2-en-1-yl]-2-oxo-1,2-dihydropyridine-3-carboxamide]	≤ 1000 nM	–	≤ 10000 nM
CN(C)c1cccc(S(=N)(=O)/C=C/CNC(=O)c2cc3c([nH]c2=O)CCCC3)c1 (centres unmarked) [Example 165, N-[(2E)-3-{[3-(dimethylamino)phenyl](imino)oxo-λ^6-sulfanyl}prop-2-en-1-yl]-2-oxo-1,2,5,6,7,8-hexahydroquinoline-3-carboxamide]	≤ 1000 nM	–	≤ 1000 nM
COc1ccc(CN2CCc3[nH]c(=O)c(C(=O)NC/C=C/S(=N)(=O)c4ccc(OC)c(F)c4)cc3C2)cc1 (centres unmarked) [Example 171, N-[(2E)-3-[(3-fluoro-4-methoxyphenyl)(imino)oxo-λ^6-sulfanyl]prop-2-en-1-yl]-6-[(4-methoxyphenyl)methyl]-2-oxo-1,2,5,6,7,8-hexahydro-1,6-naphthyridine-3-carboxamide]	≤ 1000 nM	–	≤ 1000 nM
O=C(NC/C=C/S(=O)(=O)c1ccccc1Cl)c1cc(-c2ccccc2)c[nH]c1=O [Example 129, N-[(2E)-3-(2-chlorobenzenesulfonyl)prop-2-en-1-yl]-2-oxo-5-phenyl-1,2-dihydropyridine-3-carboxamide]	≤ 1000 nM	–	≤ 10000 nM
CC(=O)Nc1ccc(S(=N)(=O)/C=C/CNC(=O)c2cc3c([nH]c2=O)CCCC3)cc1 (centres unmarked) [Example 163, N-[(2E)-3-[(4-acetamidophenyl)(imino)oxo-λ^6-sulfanyl]prop-2-en-1-yl]-2-oxo-1,2,5,6,7,8-hexahydroquinoline-3-carboxamide]	≤ 1000 nM	–	≤ 100000 nM
COc1ccc(S(=N)(=O)/C=C/CNC(=O)c2cc3c([nH]c2=O)C(C)(C)CCC3)cc1F (centres unmarked) [Example 155, N-[(2E)-3-[(3-fluoro-4-methoxyphenyl)(imino)oxo-λ^6-sulfanyl]prop-2-en-1-yl]-8,8-dimethyl-2-oxo-1,2,5,6,7,8-hexahydroquinoline-3-carboxamide]	≤ 10000 nM	–	≤ 10000 nM
COc1ccc(S(=N)(=O)/C=C/CNC(=O)c2cc3cnccc3[nH]c2=O)cc1F (centres unmarked) [Example 159, N-[(2E)-3-[(3-fluoro-4-methoxyphenyl)(imino)oxo-λ^6-sulfanyl]prop-2-en-1-yl]-2-oxo-1,2-dihydro-1,6-naphthyridine-3-carboxamide]	≤ 1000 nM	–	≤ 100000 nM
N=S(=O)(/C=C/CNC(=O)c1cc2c([nH]c1=O)CCCC2)c1ccc(N2CCOCC2)cc1 (centres unmarked) [Example 160, N-[(2E)-3-{imino[4-(morpholin-4-yl)phenyl]oxo-λ^6-sulfanyl}prop-2-en-1-yl]-2-oxo-1,2,5,6,7,8-hexahydroquinoline-3-carboxamide]	≤ 1000 nM	–	≤ 1000 nM

Continued, in another order:

IC50 [1]	IC50 [3]	SMILES	IC50 [2]
≤ 1000 nM	–	O=C(NC/C=C/S(=O)(=O)c1ccccc1)c1cc2c([nH]c1=O)CCN(C(=O)CC13CC4CC(CC(C4)C1)C3)C2 [Example 106, 6-[2-(adamantan-1-yl)acetyl]-N-[(2E)-3-(benzenesulfonyl)prop-2-en-1-yl]-2-oxo-1,2,5,6,7,8-hexahydro-1,6-naphthyridine-3-carboxamide]	≤ 10000 nM
≤ 1000 nM	–	COc1ccc(S(=N)(=O)/C=C/CNC(=O)c2cc3cccnc3[nH]c2=O)cc1F (centres unmarked) [Example 158, N-[(2E)-3-[(3-fluoro-4-methoxyphenyl)(imino)oxo-λ^6-sulfanyl]prop-2-en-1-yl]-2-oxo-1,2-dihydro-1,8-naphthyridine-3-carboxamide]	≤ 10000 nM
≤ 1000 nM	–	CNc1ccc(S(=N)(=O)/C=C/CNC(=O)c2cc3c([nH]c2=O)CCCC3)cc1 (centres unmarked) [Example 174, N-[(2E)-3-{imino[4-(methylamino)phenyl]oxo-λ^6-sulfanyl}prop-2-en-1-yl]-2-oxo-1,2,5,6,7,8-hexahydroquinoline-3-carboxamide]	≤ 1000 nM
≤ 100 nM	–	COc1ccc(S(=N)(=O)/C=C/CNC(=O)c2cc3c([nH]c2=O)CCN(C(=O)OC2CCCCC2)C3)cc1F (centres unmarked) [Example 184, cyclohexyl 3-{[(2E)-3-[(3-fluoro-4-methoxyphenyl)(imino)oxo-λ^6-sulfanyl]prop-2-en-1-yl]carbamoyl}-2-oxo-1,2,5,6,7,8-hexahydro-1,6-naphthyridine-6-carboxylate]	≤ 1000 nM
≤ 100 nM	–	N#Cc1cc(S(=N)(=O)/C=C/CNC(=O)c2cc3c([nH]c2=O)CCCC3)ccc1N1CCCCC1 (centres unmarked) [Example 173, N-[(2E)-3-{[3-cyano-4-(piperidin-1-yl)phenyl](imino)oxo-λ^6-sulfanyl}prop-2-en-1-yl]-2-oxo-1,2,5,6,7,8-hexahydroquinoline-3-carboxamide]	≤ 1000 nM
≤ 100 nM	–	N=S(=O)(/C=C/CNC(=O)c1cc2c([nH]c1=O)CCCC2)c1ccc(C(F)(F)F)cc1 (centres unmarked) [Example 154, N-[(2E)-3-[imino(oxo)[4-(trifluoromethyl)phenyl]-λ^6-sulfanyl]prop-2-en-1-yl]-2-oxo-1,2,5,6,7,8-hexahydroquinoline-3-carboxamide]	≤ 1000 nM
≤ 100 nM	–	N=S(=O)(/C=C/CNC(=O)c1cc2c([nH]c1=O)CCCC2)c1cccc(OC(F)(F)F)c1 (centres unmarked) [Example 168, N-[(2E)-3-[imino(oxo)[3-(trifluoromethoxy)phenyl]-λ^6-sulfanyl]prop-2-en-1-yl]-2-oxo-1,2,5,6,7,8-hexahydroquinoline-3-carboxamide]	≤ 1000 nM
≤ 100 nM	–	COc1ccc(S(=N)(=O)/C=C/CNC(=O)c2cc3c([nH]c2=O)CCN(C(=O)OC2CCC(F)(F)CC2)C3)cc1F (centres unmarked) [Example 183, 4,4-difluorocyclohexyl 3-{[(2E)-3-[(3-fluoro-4-methoxyphenyl) (imino)oxo-λ^6-sulfanyl]prop-2-en-1-yl]carbamoyl}-2-oxo-1,2,5,6,7,8-hexahydro-1,6-naphthyridine-6-carboxylate]	≤ 10000 nM
≤ 100 nM	–	CN1CCCc2cc(S(=N)(=O)/C=C/CNC(=O)c3cc4c([nH]c3=O)CCCC4)ccc21 (centres unmarked) [Example 177, N-[(2E)-3-[imino(1-methyl-1,2,3,4-tetrahydroquinolin-6-yl)oxo-A*-sulfanyl]prop-2-en-1-yl]-2-oxo-1,2,5,6,7,8-hexahydroquinoline-3-carboxamide]	≤ 1000 nM
≤ 100 nM	–	N=S(=O)(/C=C/CNC(=O)c1cc2c([nH]c1=O)CCCC2)c1ccc(OC2CC2)cc1 (centres unmarked) [Example 164, N-[(2E)-3-[(4-cyclopropoxyphenyl)(imino)oxo-λ^6-sulfanyl]prop-2-en-1-yl]-2-oxo-1,2,5,6,7,8-hexahydroquinoline-3-carboxamide]	≤ 1000 nM
≤ 100 nM	–	N=S(=O)(/C=C/CNC(=O)c1cc2c([nH]c1=O)CCCC2)c1ccc(C2CCCCC2)cc1 (centres unmarked) [Example 166, N-[(2E)-3-[(4-cyclohexylphenyl)(imino)oxo-λ^6-sulfanyl]prop-2-en-1-yl]-2-oxo-1,2,5,6,7,8-hexahydroquinoline-3-carboxamide]	≤ 1000 nM
